# Experimental data: publication PMC8058733, “A pain killer without analgesic tolerance designed by co-targeting PSD-95-nNOS interaction and α2-containning GABAARs” (Theranostics, 2021)
# Assays:
# [1] = test system: neuropathic pain; set-up: method as in PMID 32632774; settings: treatment of neuropathic pain, chronic use; cited from earlier work
# [2] = test system: spatial memory; assay: Morris water maze task; type: in vivo; settings: rats; ZL006-05 90 mg/kg/d, i.g.; MK801 0.25 mg/kg/d, i.v.; 6 days
# Experimental: The Morris water maze task was used to exam spatial cognitive performance of rats. A circular swimming pool (Jiliang Neuroscience Inc.) measuring 180 cm in diameter and 48 cm in height was filled with water to a depth of 26 cm at 24 ± 2 °C. Four starting points around the edge of the pool were designated as N, E, S, and W, which divided the pool into four quadrants. A platform, 10 cm in diameter, was located in a constant position in the middle of one quadrant. To render it invisible to the rats, platform was submerged 2.0 cm below the surface of the water. The task for the rats was to escape from the water by locating the hidden platform. Two days before training, the animals were habituated to swimming for 60 s in the pool without a platform. In training session, rats were trained to escape from the water by locating the platform which was above the water with a red flag on it. Then, one block of four trails was given for 6 consecutive days, and on each day, two groups of rats were administrated with MK801 (0.25 mg/kg, i.v.) or vehicle (6 mL/kg, i.v.) 30 minutes before the first trail. Meanwhile, another two groups of rats were treated with ZL006-05 (90 mg/kg, i.g.) or vehicle (6 mL/kg, i.g.) 1 hour before the first trail. […] During retention, the number of crossings of the platform location and the time spent in the target quadrant were measured.
# [3] = test system: SNL-induced mechanical hyperalgesia; assay: SNL-induced mechanical hyperalgesia, paw withdrawal threshold; type: in vivo, rat; settings: SNL rats, 60 mg/kg/d, i.g., 11 d
# Experimental: (§1) Neuropathic pain was induced by segmental spinal nerve ligation (SNL). Animals were anesthetized with isoflurane. After the loss of righting reflex, the animal was fixed in the prone position. The SNL model was prepared as described previously: a median skin incision with about 3-5 cm length in L4-S2 level of the mouse back was made, the muscles next to the vertebrae till the sixth lumbar protruding were separated, the L5/L6 joint protruding on the right side was exposed and excised, and L6 processus transversus was partially split so that the L4-L6 spinal nerves on the right side were exposed. L5 nerve was gently isolated and tightly ligated with 5-0 silk thread. The wound was closed with 4-0 silk thread suture and covered with iodine solution. After nerve ligation, animals with signs of paw clonus or autotomy were excluded from further experiments.
# Osmotic minipumps (models 1004 for mouse and 2ML4 for rat; Alzet) and intrathecal cannulas (0.61 mm outer diameter and 0.28 mm inner diameter for mouse, 0.99 mm outer diameter and 0.58 mm inner diameter for rat) were filled with a solution of PBS. Cannulas were inserted into the subarachnoid space through the space between the L5 and L6 vertebrae and the tip of the catheter was implanted at the L5 spinal segmental level.
# For rats, the threshold for 50% paw withdrawal (50% PWT) response to mechanical stimulus was assessed through a dynamic plantar apparatus (Ugo Basile, Italy). The 50% PWT refers to that the probability of paw withdrawal response to repeated mechanical stimulus is 50%. Rats were placed individually in a plastic cage (17 × 15 × 15 cm) with a wire mesh bottom which allowed full access to the paws. Behavioral accommodation was allowed for 15-20 min until cage exploration and major grooming activities ceased. A maximal cut-off of 50g/50s was set to prevent tissue damage. To record the PWT in response to mechanical stimulus, each rat was measured five times with a 5-min interval, and the mean value was recorded after excluding maximal and minimum values. The experimental procedures were performed in a double-blind manner.
# [4] = target: T1, α2β3γ2 GABAARs (Homo sapiens, UniProt P18507+P28472+P47869); assay: Potentiation of GABA-evoked currents, whole-cell patch-clamp in HEK293 cells transiently expressing recombinant GABAARs; type: cell-based
# T1 construct: Shanghai Genechem Co.,Ltd (γ2 plasmid); host or cells: HEK293
# Experimental: (§2) The affinities of drugs for α1, α2, α3 and α5 subunits were studied in the HEK293 cells (from FuHeng Biology, Shanghai, China) transiently expressing recombinant GABAARs (α1β2γ2, α2β3γ2, α3β3γ2 and α5β2γ2) as described previously. Briefly, the HEK293 cells were cultured in MEM medium supplemented with 10% FBS (fetal bovine serum, Gibico), 1% L-glutamine (Gibco) and 1% mycillin (Gibco). Before transfection, the cells were subcultured onto a 3.5cm dish at the ratio of 1:2. Then, the plasmids of α1/α2/α3/α5 (Origene), β2/β3 (Origene) and γ2 (Shanghai Genechem Co.,Ltd ) (5μg total DNA, ratio 1:1:2) were transfected using Fugene®HD transfection reagent (Promega). The γ2 subunit contained GFP from IRES (internal ribosomal entry site) and was used as a marker of the successful transfection. Cells were used for electrophysiology recording 18-36 hours after transfection.
# (§3) Electrophysiology recordings from HEK293 cells were performed as described previously. Briefly, whole-cell patch-clamp recordings of GABA-evoked currents were made at 30 °C with the holding potential of -60 mV. The internal solution (solution in recording electrodes) contained (in mM): 120 CsCl, 10 EGTA, 10 HEPES, 4 MgCl2, 0.5 GTP, 2 ATP and pH was adjusted to 7.4 with CsOH and the external solution contained (in mM): 150 NaCl, 10 KCl, 2 CaCl2, 1 MgCl, 10 HEPES, 10 Glucose and pH was adjusted to 7.4 with NaOH. ACSF was bubbled continuously with carbogen (95%O2 and 5%CO2). For the recording of GABA-evoked currents, the slides were transferred to a recording chamber, which was perfused with ACSF at a rate of 4 ml/min. The cells were viewed under upright microscopy (Olympus), and GFP-positive cells were selected to record the currents. The interval time between each different dose of GABA was controlled, 3 to 5 minutes to avoid the desensitization of GABAARs.
# [5] = target: T2, PSD-95-nNOS complex (Rattus norvegicus, UniProt P29476); assay: Co-IP of PSD-95-nNOS complex levels in the spinal dorsal horn after SNL; type: in vivo; settings: SNL rats, 60 mg/kg/d, i.g., 3 d
# T2 construct: dorsal spinal cord tissues (L4 and L5) were lysed in 400 μl RIPA; from tissue; host or cells: rat dorsal spinal cord (L4 and L5), SNL model
# [6] = test system: locomotor activity; assay: Open field test, locomotor activity; type: in vivo; settings: mice, 1 h after injection, ZL006-05 60 mg/kg, i.v., diazepam 0.5 mg/kg
# Experimental: The locomotor activity was assessed by the open field test as described previously. The apparatus consisted of a large area composed of plastic, surrounded by walls that were 100 cm high. The floor was 50 × 50 cm for mice; the overall illumination was 25 lux. Each animal was gently placed in the center of the open field, and its behavior was videotaped. The distance the animals travelled was measured in a 5-min session using ANY-maze (Stoelting Co., IL, USA). After each trial, the plate was cleaned with 70% EtOH. No stressor was applied to the animals for at least 12 h before the test.
# [7] = test system: motor coordination; assay: Rotarod test, motor coordination; type: in vivo; settings: rats, 30 min after injection, ZL006-05 60 mg/kg, i.v., diazepam 0.5 mg/kg
# [8] = target: T3, α3β3γ2 GABAARs (Homo sapiens, UniProt P18507+P28472+P34903); assay: Potentiation of GABA-evoked currents, whole-cell patch-clamp in HEK293 cells transiently expressing recombinant GABAARs; type: cell-based; settings: α3β3γ2, n = 8
# T3 construct: Shanghai Genechem Co.,Ltd (γ2 plasmid); host or cells: HEK293
# Experimental: as §2, §3
# [9] = target: T4, α1β2γ2 GABAARs (Homo sapiens, UniProt P14867+P18507+P47870); assay: as above; type: cell-based; settings: α1β2γ2, n = 8
# T4 construct: Shanghai Genechem Co.,Ltd (γ2 plasmid); host or cells: HEK293
# Experimental: as §2, §3
# [10] = test system: SNL-induced mechanical hyperalgesia; assay: SNL-induced mechanical hyperalgesia, von Frey; type: in vivo, mice; settings: SNL mice, ZL006-05 60 mg/kg/d, i.g., × 28 d; pregabalin 30 mg/kg/d
# Experimental: as §1
# For mice, the threshold for 50% PWT response to mechanical stimulus was quantified by assessing the paw withdrawal threshold using von Frey filaments (Touch-Test TM Sensory Evaluator, North coast Medical, Inc.). Mice were placed individually in a plastic cage (4.5 × 5 × 11 cm) with a wire mesh bottom which allowed full access to the paws. Behavioral accommodation was allowed for 20-30 min until cage exploration and major grooming activities ceased. Mechanical threshold was measured by applying a von Frey filament to the ventral surface of the right hind paw until a positive sign of pain behavior was elicited. The paradigm for assessing the threshold was as follows. Von Frey filaments with logarithmically incremental stiffness (0.02-2 g) were applied serially to the paw by the up-down method. The filaments were presented, in ascending order of strength, perpendicular to the plantar surface with sufficient force to causes light bending against the paw and held for 4s. A positive response was noted if the paw was sharply withdrawn. Flinching immediately upon removal of the hair was also considered a positive response. The 2-g filament was selected as the upper limit cut-off for testing. If there was no response at 2-g filament, animals were assigned this cut-off value. The pattern of positive and negative withdrawal responses was converted to 50% threshold according to the formula: 50% PWT = 10 log (X) + κδ. X = value (in log unit) of the final von Frey hair used; κ is correction factors based on the pattern of responses from the calibration table; δ = mean difference in log units between stimuli (here, 0.224).
# T1 sequence (P47869 29-451): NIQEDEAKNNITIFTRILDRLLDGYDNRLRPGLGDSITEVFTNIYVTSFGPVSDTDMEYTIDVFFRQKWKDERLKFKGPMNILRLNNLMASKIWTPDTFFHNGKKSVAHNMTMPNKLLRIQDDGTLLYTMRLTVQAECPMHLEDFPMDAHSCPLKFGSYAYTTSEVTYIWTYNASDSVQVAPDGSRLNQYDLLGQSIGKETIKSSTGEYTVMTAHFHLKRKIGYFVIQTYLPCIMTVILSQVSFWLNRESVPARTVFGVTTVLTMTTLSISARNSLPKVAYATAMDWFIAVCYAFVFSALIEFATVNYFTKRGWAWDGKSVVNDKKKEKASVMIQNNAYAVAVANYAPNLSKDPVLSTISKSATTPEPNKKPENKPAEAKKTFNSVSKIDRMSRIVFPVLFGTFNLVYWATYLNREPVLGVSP
# T1 sequence (P28472 26-473): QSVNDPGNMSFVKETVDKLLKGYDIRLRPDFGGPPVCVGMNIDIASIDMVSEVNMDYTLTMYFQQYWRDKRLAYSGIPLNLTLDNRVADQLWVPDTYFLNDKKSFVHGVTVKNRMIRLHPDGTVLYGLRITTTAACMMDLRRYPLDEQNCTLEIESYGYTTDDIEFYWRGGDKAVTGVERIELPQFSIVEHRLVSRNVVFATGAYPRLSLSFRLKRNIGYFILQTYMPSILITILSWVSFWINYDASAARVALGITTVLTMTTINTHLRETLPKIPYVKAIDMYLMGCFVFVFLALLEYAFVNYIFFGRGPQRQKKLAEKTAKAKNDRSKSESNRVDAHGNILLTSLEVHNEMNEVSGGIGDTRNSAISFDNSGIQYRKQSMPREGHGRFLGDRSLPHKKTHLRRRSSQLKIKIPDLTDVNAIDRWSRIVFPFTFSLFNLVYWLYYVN
# T1 sequence (P18507 40-475): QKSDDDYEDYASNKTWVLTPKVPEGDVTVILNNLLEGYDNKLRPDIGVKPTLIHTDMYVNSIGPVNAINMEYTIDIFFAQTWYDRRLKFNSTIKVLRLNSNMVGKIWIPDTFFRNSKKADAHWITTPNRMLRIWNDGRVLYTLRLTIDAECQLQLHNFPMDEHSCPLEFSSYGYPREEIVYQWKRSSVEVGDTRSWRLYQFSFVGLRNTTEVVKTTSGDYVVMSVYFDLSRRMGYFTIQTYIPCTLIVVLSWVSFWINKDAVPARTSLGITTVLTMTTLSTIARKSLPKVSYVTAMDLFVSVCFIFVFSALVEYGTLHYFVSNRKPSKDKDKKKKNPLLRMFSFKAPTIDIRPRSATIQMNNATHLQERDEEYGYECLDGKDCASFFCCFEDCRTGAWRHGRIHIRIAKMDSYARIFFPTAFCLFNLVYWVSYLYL
# T2 sequence (P29476 whole entry, one chain of several): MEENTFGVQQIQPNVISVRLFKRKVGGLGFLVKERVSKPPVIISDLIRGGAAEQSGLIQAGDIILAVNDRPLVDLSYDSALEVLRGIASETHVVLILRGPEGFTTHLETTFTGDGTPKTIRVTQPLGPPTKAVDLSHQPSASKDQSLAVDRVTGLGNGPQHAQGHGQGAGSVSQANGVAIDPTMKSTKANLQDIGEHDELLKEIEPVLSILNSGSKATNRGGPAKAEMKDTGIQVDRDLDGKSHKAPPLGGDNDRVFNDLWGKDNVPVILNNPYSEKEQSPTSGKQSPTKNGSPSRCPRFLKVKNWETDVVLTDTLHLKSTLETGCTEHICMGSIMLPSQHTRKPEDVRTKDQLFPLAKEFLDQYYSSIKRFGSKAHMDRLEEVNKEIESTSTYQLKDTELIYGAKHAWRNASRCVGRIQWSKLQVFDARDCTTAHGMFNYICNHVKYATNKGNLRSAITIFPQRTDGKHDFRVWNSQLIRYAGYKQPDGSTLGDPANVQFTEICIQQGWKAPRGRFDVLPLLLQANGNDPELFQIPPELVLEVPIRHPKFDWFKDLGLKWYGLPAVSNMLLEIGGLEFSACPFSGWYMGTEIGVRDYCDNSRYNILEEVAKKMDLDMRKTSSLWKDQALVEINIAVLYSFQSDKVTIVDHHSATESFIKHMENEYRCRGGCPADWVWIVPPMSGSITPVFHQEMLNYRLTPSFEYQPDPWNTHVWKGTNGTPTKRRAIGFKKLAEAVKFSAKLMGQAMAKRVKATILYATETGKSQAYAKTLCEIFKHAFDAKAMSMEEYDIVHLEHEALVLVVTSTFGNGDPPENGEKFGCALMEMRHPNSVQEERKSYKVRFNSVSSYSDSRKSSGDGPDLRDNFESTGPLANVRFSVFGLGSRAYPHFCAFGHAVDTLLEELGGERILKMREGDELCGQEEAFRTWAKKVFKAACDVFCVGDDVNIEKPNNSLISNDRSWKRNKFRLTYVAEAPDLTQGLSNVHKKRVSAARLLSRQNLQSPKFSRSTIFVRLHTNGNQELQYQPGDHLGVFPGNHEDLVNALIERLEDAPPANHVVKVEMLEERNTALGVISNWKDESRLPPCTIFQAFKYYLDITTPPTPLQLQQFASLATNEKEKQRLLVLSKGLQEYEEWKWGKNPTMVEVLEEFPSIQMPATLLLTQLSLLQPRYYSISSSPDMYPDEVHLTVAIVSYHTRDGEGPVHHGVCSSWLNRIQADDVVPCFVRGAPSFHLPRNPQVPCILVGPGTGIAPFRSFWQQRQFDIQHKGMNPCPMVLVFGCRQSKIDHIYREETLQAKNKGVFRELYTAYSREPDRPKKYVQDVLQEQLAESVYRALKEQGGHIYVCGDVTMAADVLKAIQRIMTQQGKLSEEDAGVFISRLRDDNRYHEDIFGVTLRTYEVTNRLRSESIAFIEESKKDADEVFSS
# T3 sequence (P34903 29-492): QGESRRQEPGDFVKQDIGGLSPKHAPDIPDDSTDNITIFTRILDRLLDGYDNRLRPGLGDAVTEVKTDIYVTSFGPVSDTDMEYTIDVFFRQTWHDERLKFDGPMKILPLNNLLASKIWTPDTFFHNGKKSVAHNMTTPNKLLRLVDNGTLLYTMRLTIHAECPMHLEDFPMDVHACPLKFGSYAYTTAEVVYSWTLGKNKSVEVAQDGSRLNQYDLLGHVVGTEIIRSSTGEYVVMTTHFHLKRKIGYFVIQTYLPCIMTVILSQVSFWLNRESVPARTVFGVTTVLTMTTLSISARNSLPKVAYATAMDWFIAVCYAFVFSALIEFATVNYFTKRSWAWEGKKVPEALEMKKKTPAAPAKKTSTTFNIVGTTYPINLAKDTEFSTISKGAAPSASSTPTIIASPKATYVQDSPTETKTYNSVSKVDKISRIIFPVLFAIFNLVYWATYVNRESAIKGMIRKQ
# T3 sequence (P28472 26-473): as the sequence (P28472 26-473) above
# T3 sequence (P18507 40-475): as the sequence (P18507 40-475) above
# T4 sequence (P14867 28-456): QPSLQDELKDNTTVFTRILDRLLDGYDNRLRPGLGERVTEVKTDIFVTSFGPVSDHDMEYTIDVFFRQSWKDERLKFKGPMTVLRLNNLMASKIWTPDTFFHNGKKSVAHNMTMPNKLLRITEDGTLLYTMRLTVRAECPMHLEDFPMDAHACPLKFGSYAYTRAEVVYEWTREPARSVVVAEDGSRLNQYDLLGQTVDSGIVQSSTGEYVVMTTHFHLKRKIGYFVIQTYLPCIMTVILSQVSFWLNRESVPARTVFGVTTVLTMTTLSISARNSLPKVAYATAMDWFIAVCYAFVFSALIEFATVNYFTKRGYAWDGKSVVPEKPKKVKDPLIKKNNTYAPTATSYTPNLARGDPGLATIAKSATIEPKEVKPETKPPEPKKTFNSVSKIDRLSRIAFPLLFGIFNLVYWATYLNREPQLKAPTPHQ
# T4 sequence (P47870 25-512 limits assumed): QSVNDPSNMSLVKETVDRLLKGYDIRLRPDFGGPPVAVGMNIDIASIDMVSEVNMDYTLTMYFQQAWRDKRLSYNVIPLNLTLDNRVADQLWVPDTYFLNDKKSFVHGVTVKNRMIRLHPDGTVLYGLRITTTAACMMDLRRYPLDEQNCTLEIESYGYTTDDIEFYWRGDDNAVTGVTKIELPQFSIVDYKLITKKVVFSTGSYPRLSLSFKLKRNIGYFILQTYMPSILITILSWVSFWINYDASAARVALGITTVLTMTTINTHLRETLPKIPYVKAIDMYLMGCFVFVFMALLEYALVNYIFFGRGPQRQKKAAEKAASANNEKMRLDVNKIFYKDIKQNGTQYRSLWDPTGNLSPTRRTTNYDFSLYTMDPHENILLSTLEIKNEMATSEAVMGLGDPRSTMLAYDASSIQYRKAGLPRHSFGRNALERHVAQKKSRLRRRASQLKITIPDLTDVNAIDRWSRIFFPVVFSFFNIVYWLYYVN
# T4 sequence (P18507 40-475): as the sequence (P18507 40-475) above
smiles,measurement,setting,value
C[C@]12N[C@H](Cc3ccccc31)c1ccccc12 [MK801],Analgesic tolerance when used chronically,[1],cause obvious analgesic tolerance
same,Spatial memory in the Morris water maze task,[2],caused significantly impaired spatial memory
O=C(OC1CCCCC1)c1ccc(NCc2cc(Cl)cc(Cl)c2O)cc1O [ZL006-05A],"Analgesic tolerance, mechanical hyperalgesia",[3],caused substantial analgesic tolerance
same,Effect on α2-containing GABAAR (in words),[4]; α2β3γ2,without ability to target α2-containing GABAAR
CC1(C)C2CCC1(C)C(OC(=O)c1ccc(NCc3ccccc3O)cc1O)C2 (centres unmarked) [ZL006-05B],PSD-95-nNOS complex level in the SDH,[5],without ability to target PSD-95-nNOS
same,"Analgesic tolerance, mechanical hyperalgesia",[3],caused substantial analgesic tolerance
same,EC50,"[4]; α2β3γ2, n = 8",2.834 ± 0.0033 nM
same,Emax,"[4]; α2β3γ2, n = 8",104 ± 21.9%
CN1C(=O)CN=C(c2ccccc2)c2cc(Cl)ccc21 [diazepam],"Locomotor activity, distance travelled during 5 min",[6],reduced the locomotor activity of mice in the open-field test
same,"Motor coordination, time spent on the accelerating rotarod",[7],shortened the time for rats to fall off an accelerating rotarod significantly
same,Emax,[8],113 ± 8.58%
same,Emax,[9],109 ± 18.5%
same,Emax,"[4]; α2β3γ2, n = 8",118 ± 16.4%
CC(C)C[C@H](CN)CC(=O)O [pregabalin],"Analgesic tolerance, mechanical hyperalgesia, 28 days treatment",[10],caused a severe analgesic tolerance
